Measured values from patent US8742082B2, “Compositions and methods for influencing satiety, lipid metabolism, and fat utilization” (Nestec S.A., priority 2008, dated 2014).

Assays:
[1] = system: Uncoupling protein 2 (UCP2); assay: Real-time PCR gene expression in peripheral tissues: UCP2; format: in vivo; conditions: muscle; C57bl6j mice, high fat diet, 100 mg/kg/body weight in diet, 5 weeks
Procedure: (§1) The expression of 45 genes was measured by real-time PCR in peripheral tissues to identify genes that were differentially expressed in response to oral administration of oleoylethanolamide (OEA) or a non-hydrolysable OEA analog (KDS 5104), which affect satiety, lipid metabolism, fat utilization, food intake, and body fat mass.
(§2) Animals, diet, and experimental design. Adult male C57bl6j mice purchased at 8 weeks of age were individually housed and maintained ad libitum on high fat diet and water for 2 weeks. Seven mice were randomly allocated in 3 groups and fed with a high fat diet (lipids represented 50% of daily energy) for 2 weeks. […]
(§3) RNA extraction and gene expression. […] The RNA concentration was determined on nanodrop from the absorbance at 260 nm. […] Real-time quantitative PCR (RT-qPCR) were performed on cDNA obtained as described above using a high through put system (Biomek 3000, Beckman & Coulter, Fullerton, USA) and a Lightcycler 480 (Roche/Hitachi, Basel, Switzerland) with SYBR Green Master mix+kit (Eurogentec, Philadelphia, USA). […] Values were expressed as ratio of RNA levels relative to control mice (diets with 0 mg of OEA/kg/body weight) using ΔΔ(Ct) (Livak K J & Schmittgen T D, 2001, Methods 25:402-8). Gene expression of the following genes was measured (abbreviation and GenBank Accession shown in parentheses). […]

[2] = system: Fatty Acid Synthase (FAS 1); assay: Real-time PCR gene expression in peripheral tissues: FAS; format: in vivo; conditions: liver; C57bl6j mice, high fat diet, 100 mg/kg/body weight in diet, 5 weeks
Procedure: as §1, §2, §3

[3] = system: Fasting induced adipocyte factor (Fiaf); assay: Real-time PCR gene expression in peripheral tissues: Fiaf; format: in vivo; conditions: C57bl6j mice, high fat diet, 100 mg/kg/body weight in diet, 5 weeks
Procedure: as §1
(§4) Animals, diet, and experimental design. Adult male C57bl6j mice purchased at 8 weeks of age were individually housed and maintained ad libitum on high fat diet and water for 2 weeks. Seven mice were randomly allocated in 3 groups and fed with a high fat diet (lipids represented 50% of daily energy) for 2 weeks. For one kilogram, the composition of the high fat diet was: 235 g casein, 201 g saccharose, 3.5 g L-cystine, 85 g starch, 116 g maltodextrin, 60 g cellulose, 12 g vitamins mix (AIN-93M, UPAE, Jouy-en-Josas, France), 51.5 g mineral mix (AIN-93Vx, UPAE, Jouy-en-Josas, France), and 236 g lard. Then, either OEA or KDS 5104 was added to the diet at a concentration of 100 mg/kg/body weight. The mice were kept under treatment for 5 weeks.
(§5) Sampling. At the end of the experimental period, mice were sacrificed by blood drawing (cardiac puncture) after anesthesia with isoflurane. Plasma was obtained by centrifugation (1,000 g for 10 min at 4° C.). Mesenteric, epididymal, inguinal and peritoneal adipose depots, as well as liver, stomach, small intestine mucosa, pancreas, and gastrocnemian muscle were removed and frozen into liquid nitrogen. Plasma, urine, feces, and organ samples were kept at −80° C. until analysis.
(§6) RNA extraction and gene expression. Total RNA from liver, intestine mucous membrane, adipose tissues, gastrocnemian muscle, pancreas and stomach were extracted with TRIzol reagent (Invitrogen, Carlsbad, USA) according to the manufacturer's instruction. The RNA concentration was determined on nanodrop from the absorbance at 260 nm. Retro-transcription PCRs to synthesize cDNA were performed using an Applied Biosystem Thermal Cycler 2720 and Superscript II (Invitrogen, Carlsbad, USA) according to manufacturer's protocol. Real-time quantitative PCR (RT-qPCR) were performed on cDNA obtained as described above using a high through put system (Biomek 3000, Beckman & Coulter, Fullerton, USA) and a Lightcycler 480 (Roche/Hitachi, Basel, Switzerland) with SYBR Green Master mix+kit (Eurogentec, Philadelphia, USA). Primers for the selected genes were generated using online informatics assistance from the Lightcycler manufacturer (Roche). Databases used to identify the genes were (1) the NCBI database (GenBank) and (2) the IHOP (Information Hyperlinked over Protein) database (www.ihop-net.org/UniPub/iHOP/bng/). Values were expressed as ratio of RNA levels relative to control mice (diets with 0 mg of OEA/kg/body weight) using ΔΔ(Ct) (Livak K J & Schmittgen T D, 2001, Methods 25:402-8). Gene expression of the following genes was measured (abbreviation and GenBank Accession shown in parentheses).
(§7) Statistical analysis. […] Statistical analysis of physiological parameters and gene expression data was performed by one-way ANOVA on Statview software (SAS Institute, Cary, USA). Daily food intake was analyzed using two-way ANOVA on Statview software. Statistical significance was set up at the P<0.05 level, the P<0.01 level and the P<0.001 level. For statistical analysis of the gene expression data, values were calculated relative to 18S expression for each mouse and gene.

[4] = system: G protein coupled receptor 119 (GPR 119); assay: Real-time PCR gene expression in peripheral tissues: GPR119; format: in vivo; conditions: proximal intestine; C57bl6j mice, high fat diet, 100 mg/kg/body weight in diet, 5 weeks
Procedure: as §1, §2, §3

[5] = system: Cannabinoid receptor 1 (CB 1); assay: Real-time PCR gene expression in peripheral tissues: CB1; format: in vivo; conditions: C57bl6j mice, high fat diet, 100 mg/kg/body weight in diet, 5 weeks
Procedure: as §1, §4, §5, §6, §7

Ghrelin = assay: Real-time PCR gene expression in peripheral tissues: ghrelin; format: in vivo; conditions: stomach; C57bl6j mice, high fat diet, 100 mg/kg/body weight in diet, 5 weeks
Procedure: as §1, §2, §3

[6] = system: Sterol regulatory element binding protein-c 1 (SREBP 1c); assay: Real-time PCR gene expression in peripheral tissues: SREBP1c; format: in vivo; conditions: C57bl6j mice, high fat diet, 100 mg/kg/body weight in diet, 5 weeks
Procedure: as §1, §4, §5, §6, §7

[7] = target: G-protein coupled cannabinoid receptor GPR119 (Homo sapiens, UniProt Q8TDV5); conditions: cited from earlier work
[8] = system: Sterol regulatory element binding protein-C 2 (SREBP2 1); assay: Real-time PCR gene expression in peripheral tissues: SREBP2; format: in vivo; conditions: liver; C57bl6j mice, high fat diet, 100 mg/kg/body weight in diet, 5 weeks
Procedure: as §1, §2, §3

AcylCoA oxidase (ACO) = assay: Real-time PCR gene expression in peripheral tissues: ACO; format: in vivo; conditions: liver; C57bl6j mice, high fat diet, 100 mg/kg/body weight in diet, 5 weeks
Procedure: as §1, §2, §3

Visfatin = assay: Real-time PCR gene expression in peripheral tissues: visfatin; format: in vivo; conditions: C57bl6j mice, high fat diet, 100 mg/kg/body weight in diet, 5 weeks
Procedure: as §1, §4, §5
RNA extraction and gene expression. Total RNA from liver, intestine mucous membrane, adipose tissues, gastrocnemian muscle, pancreas and stomach were extracted with TRIzol reagent (Invitrogen, Carlsbad, USA) according to the manufacturer's instruction. The RNA concentration was determined on nanodrop from the absorbance at 260 nm. […] Real-time quantitative PCR (RT-qPCR) were performed on cDNA obtained as described above using a high through put system (Biomek 3000, Beckman & Coulter, Fullerton, USA) and a Lightcycler 480 (Roche/Hitachi, Basel, Switzerland) with SYBR Green Master mix+kit (Eurogentec, Philadelphia, USA). […] Values were expressed as ratio of RNA levels relative to control mice (diets with 0 mg of OEA/kg/body weight) using ΔΔ(Ct) (Livak K J & Schmittgen T D, 2001, Methods 25:402-8). Gene expression of the following genes was measured (abbreviation and GenBank Accession shown in parentheses).
Statistical analysis. […] Daily food intake was analyzed using two-way ANOVA on Statview software. […] For statistical analysis of the gene expression data, values were calculated relative to 18S expression for each mouse and gene.

[9] = system: Stearoyl-Coenzyme A desaturase 1 (SCD 1); assay: Real-time PCR gene expression in peripheral tissues: SCD1; format: in vivo; conditions: C57bl6j mice, high fat diet, 100 mg/kg/body weight in diet, 5 weeks
Procedure: as §1, §4, §5, §6, §7

[10] = system: Fatty acid transporter/cluster of differentiation 36 (FAT/CD 36); assay: Real-time PCR gene expression in peripheral tissues: FAT/CD36; format: in vivo; conditions: C57bl6j mice, high fat diet, 100 mg/kg/body weight in diet, 5 weeks
Procedure: as §1, §4, §5, §6
Statistical analysis. Results are presented as means±standard error of the means (SEM). Statistical analysis of physiological parameters and gene expression data was performed by one-way ANOVA on Statview software (SAS Institute, Cary, USA). Daily food intake was analyzed using two-way ANOVA on Statview software. Statistical significance was set up at the P<0.05 level, the P<0.01 level and the P<0.001 level. For statistical analysis of the gene expression data, values were calculated relative to 18S expression for each mouse and gene.

Cholescystokinin (CCK) = assay: Real-time PCR gene expression in peripheral tissues: CCK; format: in vivo; conditions: proximal intestine; C57bl6j mice, high fat diet, 100 mg/kg/body weight in diet, 5 weeks
Procedure: as §1, §2, §3

[11] = cited from earlier work
[12] = system: N-acylsphingosine amidohydrolase-like (NAAA); assay: Real-time PCR gene expression in peripheral tissues: NAAA; format: in vivo; conditions: C57bl6j mice, high fat diet, 100 mg/kg/body weight in diet, 5 weeks
Procedure: as §1, §4, §5, §6, §7

[13] = rodents, intraperitoneal administration

Sequence of G-protein coupled cannabinoid receptor GPR119 (Q8TDV5 whole entry): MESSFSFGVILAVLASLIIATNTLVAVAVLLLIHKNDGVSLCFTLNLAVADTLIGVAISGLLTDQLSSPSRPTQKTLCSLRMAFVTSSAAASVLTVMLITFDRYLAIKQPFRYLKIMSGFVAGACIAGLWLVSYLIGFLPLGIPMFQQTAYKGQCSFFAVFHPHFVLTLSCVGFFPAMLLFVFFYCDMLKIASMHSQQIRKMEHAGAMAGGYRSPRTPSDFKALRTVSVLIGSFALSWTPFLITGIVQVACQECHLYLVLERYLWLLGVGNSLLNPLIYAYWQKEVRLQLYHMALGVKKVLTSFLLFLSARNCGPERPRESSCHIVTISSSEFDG

CCCCCCCC/C=C\CCCCCCCC(=O)NCCO [OEA, N-oleoyl-ethanolamide]
UCP2 m, ratio of RNA levels relative to control mice [1]: 1.19
FAS l, ratio of RNA levels relative to control mice [2]: 1.65
Fiaf at ep, ratio of RNA levels relative to control mice ([3]; epidydimal adipose tissue): −1.41
Fiaf at per, ratio of RNA levels relative to control mice ([3]; peritoneal adipose tissue): −2.42
Fiaf i, ratio of RNA levels relative to control mice ([3]; proximal intestine): 1.15
GPR119 i, ratio of RNA levels relative to control mice [4]: 1.97
CB1 at ep, ratio of RNA levels relative to control mice ([5]; epidydimal adipose tissue): −1.94
CB1 at per, ratio of RNA levels relative to control mice ([5]; peritoneal adipose tissue): −5.27
CB1 i, ratio of RNA levels relative to control mice ([5]; proximal intestine): −1.02
ghrelin s, ratio of RNA levels relative to control mice (Ghrelin): 1.98
SREBP1c at ep, ratio of RNA levels relative to control mice ([6]; epidydimal adipose tissue): 1.08
SREBP1c l, ratio of RNA levels relative to control mice ([6]; liver): 1.24
SREBP1c at per, ratio of RNA levels relative to control mice ([6]; peritoneal adipose tissue): −1.39
binding to GPR119 [7]: can also bind
SREBP2 l, ratio of RNA levels relative to control mice [8]: 1.22
ACO l, ratio of RNA levels relative to control mice (AcylCoA oxidase (ACO)): 1.06
visfatin at ep, ratio of RNA levels relative to control mice (Visfatin; epidydimal adipose tissue): −1.55
visfatin at per, ratio of RNA levels relative to control mice (Visfatin; peritoneal adipose tissue): −1.80
SCD 1 at ep, ratio of RNA levels relative to control mice ([9]; epidydimal adipose tissue): 1.00
SCD1 l, ratio of RNA levels relative to control mice ([9]; liver): −2.13
SCD 1 at per, ratio of RNA levels relative to control mice ([9]; peritoneal adipose tissue): −1.30
FAT/CD36 at ep, ratio of RNA levels relative to control mice ([10]; epidydimal adipose tissue): −1.88
FAT/CD36 l, ratio of RNA levels relative to control mice ([10]; liver): 1.45
FAT/CD36 at per, ratio of RNA levels relative to control mice ([10]; peritoneal adipose tissue): −1.81
FAT/CD36 i, ratio of RNA levels relative to control mice ([10]; proximal intestine): 1.61
CCK i, ratio of RNA levels relative to control mice (Cholescystokinin (CCK)): 1.57
food intake (meal size, first meal delay, meal intervals) ([11]; administrated intraperitoneally): reduced food intake
body fat gain [11, 13]: reduced body fat gain
satiety and lipid utilization [11, 13]: induce satiety and peripheral utilization of lipid substrate
NAAA at ep, ratio of RNA levels relative to control mice ([12]; epidydimal adipose tissue): 1.36
NAAA at per, ratio of RNA levels relative to control mice ([12]; peritoneal adipose tissue): 1.03
NAAA i, ratio of RNA levels relative to control mice ([12]; proximal intestine): 1.85
